Data on 8 molecules can be found in patent publication US5449661A, “Angiotensin converting enzyme inhibitor and method for preparing same” (The Calpis Food Industry Co., Ltd., priority 1992, dated 1995).

A word on the IC50: it is the point on the concentration scale where inhibition reaches its midpoint.

Structures are written as SMILES. Residues, ends and D or L forms follow the SMILES beside them.

The assay deals with T1, angiotensin converting enzyme (ACE) (Oryctolagus cuniculus, UniProt P12822).
T1 sequence (P12822 34-1310): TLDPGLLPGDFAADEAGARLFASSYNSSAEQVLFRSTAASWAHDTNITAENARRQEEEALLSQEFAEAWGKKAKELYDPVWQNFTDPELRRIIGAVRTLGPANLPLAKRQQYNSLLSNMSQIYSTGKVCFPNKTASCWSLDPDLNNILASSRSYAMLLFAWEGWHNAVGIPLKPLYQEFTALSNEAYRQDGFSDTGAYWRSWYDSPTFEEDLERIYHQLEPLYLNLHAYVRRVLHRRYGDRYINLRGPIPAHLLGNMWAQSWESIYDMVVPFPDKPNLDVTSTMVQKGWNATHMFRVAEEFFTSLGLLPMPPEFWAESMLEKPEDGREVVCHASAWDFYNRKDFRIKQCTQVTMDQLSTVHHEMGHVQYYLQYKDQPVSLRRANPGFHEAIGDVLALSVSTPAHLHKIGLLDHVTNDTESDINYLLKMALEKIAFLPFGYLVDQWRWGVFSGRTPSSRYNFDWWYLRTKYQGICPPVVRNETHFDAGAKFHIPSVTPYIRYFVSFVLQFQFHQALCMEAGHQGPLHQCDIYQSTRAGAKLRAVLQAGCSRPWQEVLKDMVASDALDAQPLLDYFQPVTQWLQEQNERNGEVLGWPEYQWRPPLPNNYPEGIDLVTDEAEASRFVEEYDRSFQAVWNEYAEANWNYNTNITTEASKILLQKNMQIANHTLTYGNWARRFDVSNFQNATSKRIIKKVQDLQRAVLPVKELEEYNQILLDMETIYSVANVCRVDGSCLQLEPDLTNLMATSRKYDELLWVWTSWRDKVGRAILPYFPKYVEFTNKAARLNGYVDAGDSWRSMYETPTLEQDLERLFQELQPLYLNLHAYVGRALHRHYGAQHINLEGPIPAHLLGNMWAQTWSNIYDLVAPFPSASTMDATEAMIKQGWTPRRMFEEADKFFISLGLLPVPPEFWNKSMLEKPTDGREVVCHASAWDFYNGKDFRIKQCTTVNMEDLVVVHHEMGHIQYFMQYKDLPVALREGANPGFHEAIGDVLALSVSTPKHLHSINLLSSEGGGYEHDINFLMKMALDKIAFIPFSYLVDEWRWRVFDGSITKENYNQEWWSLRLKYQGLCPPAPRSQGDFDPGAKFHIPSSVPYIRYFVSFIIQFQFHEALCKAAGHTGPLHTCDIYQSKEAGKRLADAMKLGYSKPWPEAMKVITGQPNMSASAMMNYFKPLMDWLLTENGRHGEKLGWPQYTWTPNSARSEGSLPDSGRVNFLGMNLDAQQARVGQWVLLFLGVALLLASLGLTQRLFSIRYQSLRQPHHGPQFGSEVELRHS
The assay can be described thus: ACE inhibiting activity (method of Cushman and Cheung, Hip-His-Leu substrate). Conditions: read-out: IC50 (μM), ACE inhibiting activity of synthesized peptides; chemically synthesized peptides; measured in the same way as in Example 1.
Procedure: 0.2 ml of hippuryl histidyl leucine (Hip-His-Leu, manufactured by SIGMA CHEMICAL CO.), adjusted to 5 mM with a 0.1M boric acid buffer containing 0.3M NaCl, pH 8.3, and 0.02 ml of an aqueous enzyme solution (ACE, 0.1 u/ml, manufactured by SIGMA CHEMICAL CO.) were added in this order as a substrate to the contents of each test tube, and reaction was carried out at 37° C. for 30 minutes. 0.25 ml of 1N hydrochloric acid was subsequently added to the contents of each test tube. After termination of the reaction, 1.7 ml of ethyl acetate was added to the contents of each tube, and agitation was continued for 20 seconds. After centrifugal separation at 3000 rpm for 10 minutes, and recovery of 1.4 ml of an ethyl acetate layer, the solvent was removed by heating at 120° for 40 minutes. After removing the solvent and adding 1 ml of distilled water, the absorption at 228 nm of the extracted hippuric acid was measured and adopted as the ACE inhibiting activity. The inhibiting ratio was calculated by the following equation:
Inhibiting Percentage=[(A-B)/(A-C)]×100(%)
Take `CC(C)[C@H](NC(=O)[C@@H]1CCCN1)C(=O)N[C@H](C(=O)N[C@H](C(=O)N1CCC[C@H]1C(=O)N1CCC[C@H]1C(=O)O)C(C)C)C(C)C` [Pro--Val--Val--Val--Pro--Pro, Pro-Val-Val-Val-Pro-Pro] (H-PVVVPP-OH): the half-maximal inhibitory concentration (IC50) was 117 µM. Regarding `CC(C)[C@H](N)C(=O)N[C@H](C(=O)N[C@H](C(=O)N1CCC[C@H]1C(=O)N1CCC[C@H]1C(=O)O)C(C)C)C(C)C` [Val--Val--Val--Pro--Pro, Val-Val-Val-Pro-Pro] (H-VVVPP-OH), the IC50 was found to be 873 µM. Then `CC(C)[C@H](NC(=O)[C@@H]1CCCN1C(=O)[C@H](C)N)C(=O)N1CCC[C@H]1C(=O)N1CCC[C@H]1C(=O)O` [Ala--Pro--Val--Pro--Pro, Ala-Pro-Val-Pro-Pro] (H-APVPP-OH), with 627 µM. The result for `CC(C)C[C@H](NC(=O)[C@@H](N)Cc1ccccc1)C(=O)N[C@H](C(=O)N1CCC[C@H]1C(=O)N1CCC[C@H]1C(=O)O)C(C)C` [Phe--Leu--Val--Pro--Pro, Phe-Leu-Val-Pro-Pro] (H-FLVPP-OH) reads 12 µM; that for `CC(C)C[C@H](N)C(=O)N[C@H](C(=O)N1CCC[C@H]1C(=O)N1CCC[C@H]1C(=O)O)C(C)C` [Leu--Val--Pro--Pro, Leu-Val-Pro-Pro] (H-LVPP-OH), 125 µM; that for `CC(C)[C@H](NC(=O)[C@@H]1CCCN1)C(=O)N1CCC[C@H]1C(=O)N1CCC[C@H]1C(=O)O` [Pro--Val--Pro--Pro, Pro-Val-Pro-Pro] (H-PVPP-OH), 181 µM. Turning to `CC(C)[C@H](N)C(=O)N[C@H](C(=O)N1CCC[C@H]1C(=O)N1CCC[C@H]1C(=O)O)C(C)C` [Val--Val--Pro--Pro, Val-Val-Pro-Pro] (H-VVPP-OH), the IC50 is 285 µM. The result for `CC(C)C[C@H](N)C(=O)N[C@H](C(=O)N[C@@H](CCC(N)=O)C(=O)N[C@H](C(=O)N1CCC[C@H]1C(=O)N[C@H](C(=O)N[C@H](C(=O)N[C@H](C(=O)N1CCC[C@H]1C(=O)N1CCC[C@H]1C(=O)O)C(C)C)C(C)C)C(C)C)[C@@H](C)O)[C@@H](C)O` (H-LTQTPVVVPP-OH) reads 160 µM.
